Measurements from US20250263396A1, “CRYSTALLINE FORMS OF 3-(5-(2-HYDROXY-2- METHYLPROPOXY)-6-METHYPYRAZIN-2-YL)-1H-INDOLE-7-CARBONITRILE” (NIDO BIOSCIENCES, INC., priority 2024, published 2025).
In brackets after ≈: the same amount, converted by molar mass. Like-named read-outs stand apart in the source and are kept apart here.

Experiments:
physchem = settings: 37 °C, thermodynamic from solid
[1] = Form change on heating, dehydration or desolvation (TGA, DSC, variable temperature XRPD); type: physicochemical; settings: heated above 176° C. using milled Form P, variable temperature XRPD
Protocol: Relative stability of the anhydrates Form R and Form P was investigated by variable temperature XRPD and competitive equilibration experiments.
Relative stability of the anhydrates Form B, Form X, Form Y and Form C was investigated by variable temperature XRPD. Form B converted to Form X, Form Y and Form C after heating to 150° C., 176° C. and 180° C., respectively.

[2] = Solid state
[3] = 25° C./92.5% RH, open container, 1 week
[4] = 25° C./92.5% RH, open container, 2 weeks
[5] = 25° C./92.5% RH, open container, 4 weeks
[6] = 40° C./75% RH, open container, 1 week
[7] = 40° C./75% RH, open container, 2 weeks
[8] = 40° C./75% RH, open container, 4 weeks
[9] = 60° C., tight container, 1 week
[10] = 60° C., tight container, 2 weeks
[11] = 60° C., tight container, 4 weeks
[12] = photo (visible light, closed, 1.2 million lux-hrs at 25° C.), clear vial
[13] = photo (visible light, closed, 1.2 million lux-hrs at 25° C.), wrapped with aluminum foil

Cc1nc(-c2c[nH]c3c(C#N)cccc23)cnc1OCC(C)(C)O [Form P, 3-(5-(2-hydroxy-2-methylpropoxy)-6-methylpyrazin-2-yl)-1H-indole-7-carbonitrile]
solubility at 24 h (physchem; pH 1.2, simulated gastric fluid): 7.2 µg/mL (≈ 22.3 µM) | solubility at 24 h (physchem; pH 1.6, fassgf or other biorelevant): 5.1 µg/mL (≈ 15.8 µM) | solubility at 24 h (physchem; pH 3, aqueous buffer): 2.9 µg/mL (≈ 9 µM) | solubility at 24 h (physchem; pH 5, aqueous buffer): 2.3 µg/mL (≈ 7.13 µM) | solubility at 24 h (physchem; pH 5, fessif): 111 µg/mL (≈ 343 µM) | solubility at 24 h (physchem; pH 6.5, fassif): 20.9 µg/mL (≈ 64.8 µM) | solubility at 24 h (physchem; pH 7, aqueous buffer): 2.4 µg/mL (≈ 7.44 µM) | solubility at 24 h (physchem; water): 2.7 µg/mL (≈ 8.38 µM) | Form after heating [1]: converted to Form R | Bulk (XRPD) [2, 3]: No form change | Color [2, 3]: No color change | Purity, Bulk (HPLC) [2, 3]: 100% | Bulk (XRPD) [2, 4]: No form change | Color [2, 4]: No color change | Purity, Bulk (HPLC) [2, 4]: 100% | Bulk (XRPD) [2, 5]: No form change | Color [2, 5]: No color change | Purity, Bulk (HPLC) [2, 5]: 100% | Bulk (XRPD) [2, 6]: No form change | Color [2, 6]: No color change | Purity, Bulk (HPLC) [2, 6]: 100% | Bulk (XRPD) [2, 7]: No form change | Color [2, 7]: No color change | Purity, Bulk (HPLC) [2, 7]: 100% | Bulk (XRPD) [2, 8]: No form change | Color [2, 8]: No color change | Purity, Bulk (HPLC) [2, 8]: 100% | Bulk (XRPD) [2, 9]: No form change | Color [2, 9]: No color change | Purity, Bulk (HPLC) [2, 9]: 99.9% | Bulk (XRPD) [2, 10]: No form change | Color [2, 10]: No color change | Purity, Bulk (HPLC) [2, 10]: 100% | Bulk (XRPD) [2, 11]: No form change | Color [2, 11]: No color change | Purity, Bulk (HPLC) [2, 11]: 100% | Bulk, clear vial (XRPD) [2, 12]: No form change | Color [2, 12]: medium discoloration | Purity, Bulk, clear vial (HPLC) [2, 12]: ~60% | Color [2, 13]: No color change | Purity, Bulk, wrapped with aluminum foil (HPLC) [2, 13]: 100%
